Some test systems named below: A549 NSCLC; K-562 leukemia; M14 melanoma; OVCAR-8 ovarian; RXF 393 renal; SK-MEL-2 melanoma; KM12 colon; MDA-MB-231 breast; NCI-H23 lung.
Holding throughout (test): growth of human tumour cells (NCI), 48 h

Values joined by “and” are separate entries in the source; they are usually repeats but may differ in a detail not shown here. Equal values may be shown once.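 Interpolation was linear, between the two tested concentrations surrounding the appropriate level; five concentrations were tested over 48 hours in 96-well plates. Here, GI50 denotes the concentration required for 50% inhibition of growth. Definition used: TGI = concentration required for complete inhibition of growth.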 Some results are limits rather than exact numbers.

In the case of `CC(=O)O[C@H]1C(=O)[C@@]2(C)C([C@H](OC(=O)c3ccccc3)[C@]3(O)C[C@H](OC(=O)[C@H](O)[C@H](NC(=O)c4ccccc4)c4ccc(Cl)cc4)C(C)=C1C3(C)C)C1(OC(C)=O)CO[C@@H]1C[C@@H]2O` (stereo partly drawn), the TGI in the test on A549 NSCLC is 24.4 µM; in the test with K-562 leukemia it was 10.9 µM; in the test on M14 melanoma it was 0.027 µM; in the test with OVCAR-8 ovarian, 61.9 µM; with RXF 393 renal, 0.0644 µM and 0.0869 µM; in the test on SK-MEL-2 melanoma it was 0.0635 µM. Besides, in the test with RXF 393 renal, the GI50 was 0.0187 µM.

Consider `CCOC(=O)N1CCN(Cc2cc(=O)n3cc(C)ccc3n2)CC1`, for which the TGI with A549 NSCLC, in the test on K-562 leukemia, in the test on KM12 colon, with M14 melanoma, with MDA-MB-231 breast and in the test on NCI-H23 lung was greater than 100 µM each time. Further, the TGI in the test on OVCAR-8 ovarian and in the test with SK-MEL-2 melanoma was greater than 100 µM each time.

As for `O=C1C=C(N2CCCC2)C=C(N2CCCC2)C1`, the TGI in the test with A549 NSCLC, in the test with K-562 leukemia, in the test on KM12 colon, in the test on M14 melanoma, in the test on NCI-H23 lung and in the test with OVCAR-8 ovarian was greater than 100 µM throughout. Further, the TGI in the test on RXF 393 renal and in the test on SK-MEL-2 melanoma was greater than 100 µM in each case.

For the compound `O=C(Cc1ccccc1)NN1C(=O)C(Cl)C1c1cccc(O)c1` (stereo not drawn), the TGI is 59.8 µM in the test with A549 NSCLC; 34.7 µM in the test with K-562 leukemia; 31.4 µM in the test with M14 melanoma; 35.2 µM in the test on NCI-H23 lung; 35.1 µM with OVCAR-8 ovarian; 32.3 µM with RXF 393 renal. The compound also returned a TGI in the test with SK-MEL-2 melanoma of 59.5 µM.

Consider `CCN(CC)CCNC(=O)c1ccc([N+](=O)[O-])cc1OC`, for which the TGI in the test on A549 NSCLC, with K-562 leukemia, in the test with KM12 colon, with M14 melanoma, in the test on NCI-H23 lung and with OVCAR-8 ovarian was greater than 100 µM each time. For the same compound, the TGI with RXF 393 renal and in the test with SK-MEL-2 melanoma was greater than 100 µM throughout.

As for `Cc1c(NC(=O)C(=O)N=NC(=O)c2ccncc2)c(O)c2ccccc2c1O`, the TGI was 30.2 µM in the test on A549 NSCLC; greater than 82 µM with K-562 leukemia; greater than 100 µM with KM12 colon; 22.7 µM with M14 melanoma; 23.5 µM in the test with NCI-H23 lung; 52.1 µM with OVCAR-8 ovarian. In addition, the TGI is 32.6 µM in the test with RXF 393 renal and 11 µM in the test on SK-MEL-2 melanoma.

`FC(F)(F)P1C2C=CC(CC2)C1(F)F` (stereo not drawn): the TGI in the test with A549 NSCLC, in the test on K-562 leukemia, in the test with KM12 colon, with M14 melanoma, with NCI-H23 lung and in the test on OVCAR-8 ovarian was greater than 100 µM in each case. In addition, the TGI in the test on RXF 393 renal and with SK-MEL-2 melanoma was greater than 100 µM throughout.

Consider `CCOc1ccc(N2C(=O)C3c4[nH]c5ccccc5c4C4CCC(C(C)(C)C)CC4C3C2=O)cc1` (stereo not drawn), for which the TGI with A549 NSCLC was greater than 100 µM; in the test with K-562 leukemia it was greater than 100 µM; in the test on M14 melanoma it was greater than 100 µM; with NCI-H23 lung, greater than 100 µM; in the test with OVCAR-8 ovarian it was greater than 100 µM; in the test on RXF 393 renal it was 71 µM.

With `CC(=O)Oc1ccc(N2C(=O)C3c4[nH]c5ccccc5c4C4CCC(C(C)(C)C)CC4C3C2=O)cc1` (stereo not drawn), the TGI in the test with A549 NSCLC came to 10.7 µM; in the test on K-562 leukemia, 10.9 µM; with M14 melanoma, 13.2 µM; with MDA-MB-231 breast, 4.63 µM; with NCI-H23 lung, 8.79 µM; in the test with OVCAR-8 ovarian it was 13.5 µM. Besides, the TGI came out at 5.64 µM in the test on RXF 393 renal and 17.8 µM in the test with SK-MEL-2 melanoma.

Regarding `Cc1c(C(=O)CSc2nc3ccc([N+](=O)[O-])cc3[nH]2)c(=O)n(-c2ccccc2)n1C`, the TGI with A549 NSCLC, in the test with KM12 colon, in the test with M14 melanoma, in the test on NCI-H23 lung, with OVCAR-8 ovarian and in the test on SK-MEL-2 melanoma was greater than 100 µM each time.

With `CCOC(=O)c1cccc(NC(=O)CBr)c1`, the TGI was determined as 3.96 µM in the test on A549 NSCLC; 1.63 µM in the test on K-562 leukemia; 3.58 µM in the test with KM12 colon; 2.75 µM with M14 melanoma; 3.51 µM in the test on MDA-MB-231 breast; 2.77 µM in the test on NCI-H23 lung. For the same compound, the TGI is greater than 21.6 µM in the test with OVCAR-8 ovarian, 3.24 µM in the test on RXF 393 renal and 3.2 µM with SK-MEL-2 melanoma.

For the compound `COc1cc(C2C(Cl)C(=O)N2n2cnc3ccccc3c2=O)cc(OC)c1OC` (stereo not drawn), the TGI in the test on A549 NSCLC, with K-562 leukemia, with KM12 colon, with M14 melanoma, in the test with NCI-H23 lung and in the test on OVCAR-8 ovarian was greater than 100 µM throughout. For the same compound, the TGI in the test on RXF 393 renal and in the test with SK-MEL-2 melanoma was greater than 100 µM throughout.

On to `O=C(O)C(CS)NCc1c2ccccc2[n+]([O-])c2ccccc12` (stereo not drawn), for which the TGI in the test on A549 NSCLC, in the test on K-562 leukemia, with KM12 colon, with M14 melanoma, with NCI-H23 lung and in the test on OVCAR-8 ovarian was greater than 100 µM each time. This compound also had a TGI in the test with SK-MEL-2 melanoma greater than 100 µM.

The record behind these values is PubChem BioAssay (NCI).
